# Assay results from ChEMBL document CHEMBL1817567, “Design of benzimidazole- and benzoxazole-2-thione derivatives as inhibitors of bacterial hyaluronan lyase” (Eur J Med Chem, 2011).
# Target: T1, Hyaluronidase (Bos taurus, UniProt Q8SQG8+Q5E985)
# T1 sequence (Q8SQG8 whole entry): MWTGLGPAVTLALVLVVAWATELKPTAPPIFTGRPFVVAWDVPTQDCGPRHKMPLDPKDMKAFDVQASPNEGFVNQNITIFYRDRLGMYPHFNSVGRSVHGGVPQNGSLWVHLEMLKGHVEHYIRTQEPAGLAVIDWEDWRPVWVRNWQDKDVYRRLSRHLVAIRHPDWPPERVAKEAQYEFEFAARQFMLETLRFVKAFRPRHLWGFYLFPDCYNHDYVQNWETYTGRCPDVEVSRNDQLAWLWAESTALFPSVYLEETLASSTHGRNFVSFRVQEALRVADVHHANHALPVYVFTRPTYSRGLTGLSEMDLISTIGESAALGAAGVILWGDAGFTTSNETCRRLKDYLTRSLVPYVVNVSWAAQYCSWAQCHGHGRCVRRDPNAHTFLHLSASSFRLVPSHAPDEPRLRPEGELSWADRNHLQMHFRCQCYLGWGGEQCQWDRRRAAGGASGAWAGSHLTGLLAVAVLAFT
# T1 sequence (Q5E985 whole entry): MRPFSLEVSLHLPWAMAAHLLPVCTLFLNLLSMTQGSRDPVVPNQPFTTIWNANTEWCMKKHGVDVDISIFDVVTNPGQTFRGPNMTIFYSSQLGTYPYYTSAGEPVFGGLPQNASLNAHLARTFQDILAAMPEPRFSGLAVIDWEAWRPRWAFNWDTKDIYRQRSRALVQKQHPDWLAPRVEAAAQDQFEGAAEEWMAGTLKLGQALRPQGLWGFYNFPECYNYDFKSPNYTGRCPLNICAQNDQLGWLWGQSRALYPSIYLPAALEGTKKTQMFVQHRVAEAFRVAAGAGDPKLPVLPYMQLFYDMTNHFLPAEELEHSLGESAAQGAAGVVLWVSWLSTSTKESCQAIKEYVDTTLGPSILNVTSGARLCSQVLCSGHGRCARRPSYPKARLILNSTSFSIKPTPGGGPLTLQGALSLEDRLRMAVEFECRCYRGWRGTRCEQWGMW
# Test: Inhibition of bovine testes hyaluronidase after 30 mins at pH 5 by turbidimetric analysis
# Assay type: protein assay
smiles,measurement,value
Oc1ccc(-c2[nH]c3ccccc3c2-c2ccccc2)cc1,IC50,107 µM
